Measured values reported in PubChem BioAssay (NCI).
Values joined by “and” are separate entries in the source; they are usually repeats but may differ in a detail not shown here. Equal values may be shown once.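 Five concentrations, 48 hours, 96-well plates. At the GI50, growth is halved. Definition used: TGI = concentration required for complete inhibition of growth.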

Experiments:
Experiment in all cases: inhibition of tumour cell growth, NCI panel, 48 h
[1] = system: UACC-62 melanoma
[2] = system: NCI-H23 lung
[3] = system: UO-31 renal
[4] = system: RXF 393 renal
[5] = system: SF-539 CNS
[6] = system: HCC-2998 colon
[7] = system: NCI-H522 lung
[8] = system: HOP-62 NSCLC
[9] = system: HT29 colon
[10] = system: SK-OV-3 ovarian

Compound	GI50 [1] [nM]	TGI [1]	GI50 [2] [nM]	TGI [2]	GI50 [3] [nM]	TGI [3]	GI50 [4] [nM]	TGI [4]	GI50 [5] [nM]	TGI [5]	GI50 [6] [nM]	TGI [6]	TGI [7] [nM]	TGI [8]	TGI [9] [nM]	TGI [10]	GI50 [8] [nM]	GI50 [7] [nM]	GI50 [9] [nM]	GI50 [10] [nM]
O=C(CCN1CCCC1)Nc1ccc2c(NCCCCc3ccccc3)c3ccccc3nc2c1	1670	3120 nM	1100	2400 nM	1550	2920 nM	802	2180 nM	1440	2840 nM	815	2140 nM	–	–	–	–	–	–	–	–
Cc1c2cc[n+](C)cc2c(C)c2c1[nH]c1ccc(O)cc12	–	82100 nM	–	63400 nM	–	86800 nM	–	> 100000 nM	–	75200 nM	–	98700 nM	55900	35000 nM	> 81100	> 100000 nM	–	–	–	–
CC(=O)O[C@H]1C(=O)[C@]2(C)[C@@H](OC(=O)OCC(O)CO)C[C@H]3OC[C@@]3(OC(C)=O)[C@H]2[C@H](OC(=O)c2ccccc2)[C@]2(O)C[C@H](OC(=O)[C@H](O)[C@@H](NC(=O)c3ccccc3)c3ccccc3)C(C)=C1C2(C)C (stereo not given in full)	–	21200 nM	–	> 43200 nM	–	> 100000 nM	–	1040 nM	–	< 10 nM	–	< 10 nM	–	13700 nM	–	> 100000 nM	–	–	–	–
O=c1c(-c2ccccc2)c[nH]c2cc([N+](=O)[O-])c(/C(Cl)=C/c3ccccc3)cc12	–	22600 nM	–	> 44500 nM	–	36800 nM	–	29500 nM	–	27700 nM	–	–	16300	52000 nM	> 51600	> 100000 nM	–	–	–	–
COc1cc2c(cc1-c1c(C)noc1C)ncc1nc(C3CCCCC3)n(C3CCC(OC(F)F)CC3)c12 (stereo not given)	–	–	2490	> 100000 nM	–	–	1330	3990 nM	–	–	–	–	–	> 100000 nM	–	–	1970	–	–	–
CCP(=O)(CC)C(Cl)(Cl)C(=O)NC	–	–	–	> 100000 nM	–	> 100000 nM	–	–	–	–	–	> 100000 nM	> 100000	> 100000 nM	> 100000	> 100000 nM	–	–	–	–
Cc1c2cc[n+](C)cc2c(COC2OC(CO)C(O)C2O)c2c3ccccc3n(C)c12 (stereo not given)	–	> 100000 nM	–	> 100000 nM	–	> 100000 nM	–	> 100000 nM	–	> 100000 nM	–	> 100000 nM	> 100000	> 74200 nM	> 100000	99100 nM	–	–	–	–
CC(C)(C)CC(C)(C)Cc1ccc(OCCOCC[N+](C)(C)Cc2ccccc2)cc1	1260	2540 nM	1450	3800 nM	14200	34700 nM	1420	3000 nM	1700	3210 nM	1580	3020 nM	4450	6730 nM	3100	12400 nM	2310	1550	1500	2710
CC(=O)OC1CC2(O)C(CCC3(C)C(c4ccc(=O)oc4)CCC32O)C2(C)CCC(O)C=C12 (stereo not given)	37.5	82.7 nM and 47.8 nM	37.5	31.1 nM and 70.4 nM	66.7	131 nM and 95 nM	6.24	27 nM and 39.9 nM	37.5	38.3 nM and 41.4 nM	43.7	357 nM and 195 nM	6.26	105 nM and 48 nM	–	104 nM and 117 nM	12.3	–	59.2	43.5
